Target: T1, human vasopressin V2 receptor subtype (Homo sapiens, UniProt P30518)
T1 construct: host or cells: CHO cells (pZeoSV vector)
Experiment: Vasopressin binding in Chinese Hamster Ovary cell membranes expressing human vasopressin V2 subtype receptors
Details: 100 nM, CHO cell membranes, [3H]arginine vasopressin, values without parentheses
How it was run: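 Radioligand displacement on membranes from CHO cells stably expressing human V2 receptor, 25 to 50 μg protein/well, in 50 mM Tris-HCl pH 7.4 with MgCl2, BSA and protease inhibitors. [^3H]arginine vasopressin (8 nM working solution) incubated 60 min at room temperature; bound label measured by filtration and scintillation counting.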

T1 sequence (P30518 whole entry): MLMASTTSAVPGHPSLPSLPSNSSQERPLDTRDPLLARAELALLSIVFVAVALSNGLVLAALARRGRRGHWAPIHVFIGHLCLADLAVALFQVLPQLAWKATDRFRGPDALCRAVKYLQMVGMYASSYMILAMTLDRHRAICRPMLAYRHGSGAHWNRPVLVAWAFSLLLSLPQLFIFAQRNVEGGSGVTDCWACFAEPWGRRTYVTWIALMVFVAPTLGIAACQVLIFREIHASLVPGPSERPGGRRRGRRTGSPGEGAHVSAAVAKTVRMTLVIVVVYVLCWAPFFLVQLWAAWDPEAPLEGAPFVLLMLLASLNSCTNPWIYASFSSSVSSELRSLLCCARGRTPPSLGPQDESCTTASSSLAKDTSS

inhibition at 0.1 µM	SMILES
21%	COc1cc(C(=O)N2Cc3ccc(C(=O)N4CCN(CCCN(C)C)CC4)n3Cc3ccccc32)ccc1-n1c(C)ccc1C [Example 320, {4-[3-(Dimethylamino)propyl]-1-piperazinyl}{10-[4-(2,5-dimethyl-1H-pyrrol-1-yl)-3-methoxybenzoyl]-10,11-dihydro-5H-pyrrolo[2,1-c][1,4]benzodiazepin-3-yl}methanone]
-10%	COc1cc(C(=O)N2Cc3ccc(C(=O)N4CCN(CCCN(C)C)CC4)n3Cc3ccccc32)ccc1-c1cccc2ccccc12 [Example 253, {4-[3-(Dimethylamino)propyl]-1-piperazinyl}{10-[3-methoxy-4-(1-naphthyl)benzoyl]-10,11-dihydro-5H-pyrrolo[2,1-c][1,4]benzodiazepin-3-yl}methanone]
11%	COc1cccc(-c2ccc(C(=O)N3Cc4ccc(C(=O)N5CCN(C)CC5)n4Cc4ccccc43)cc2OC)c1 [Example 57, {10-[(2,3′-Dimethoxy[1,1′-biphenyl]-4-yl)carbonyl]-10,11-dihydro-5H-pyrrolo[2,1-c][1,4]benzodiazepin-3-yl}(4-methyl-1-piperazinyl)methanone]
17%	COc1cccc(-c2ccc(C(=O)N3Cc4ccc(C(=O)N5CCN(C)CC5)n4Cc4ccccc43)cc2C)c1 [Example 51, {10-[(3′-Methoxy-2-methyl[1,1′-biphenyl]-4-yl)carbonyl]-10,11-dihydro-5H-pyrrolo[2,1-c][1,4]benzodiazepin-3-yl}(4-methyl-1-piperazinyl)methanone]
7%	COc1cc(C(=O)N2Cc3ccc(C(=O)N4CCC(N5CCCCC5)CC4)n3Cc3ccccc32)ccc1-n1c(C)ccc1C [Example 311, {10-[4-(2,5-Dimethyl-1H-pyrrol-1-yl)-3-methoxy-benzoyl]-10,11-dihydro-5H-pyrrolo[2,1-c][1,4]benzodiazepin-3-yl}[4-(1-piperidinyl)-1-piperidinyl]-methanone]
5%	Cc1cc(C(=O)N2Cc3cccn3Cc3ncccc32)ccc1-c1ccccc1C(F)(F)F [Example 323F, (2-Methyl-2′-trifluoromethyl-[1,1′-biphenyl]-4-yl)-(4H,10H-3a,5,9-triaza-benzo[f]azulen-9-yl)-methanone]
-2%	COc1cc(C(=O)N2Cc3ccc(C(=O)N4CCN(CCN(C)C)CC4)n3Cc3ccccc32)ccc1-n1c(C)ccc1C [Example 316, {4-[2-(Dimethylamino)ethyl]-1-piperazinyl}{10-[4-(2,5-dimethyl-1H-pyrrol-1-yl)-3-methoxybenzoyl]-10,11-dihydro-5H-pyrrolo[2,1-c][1,4]benzodiazepin-3-yl}methanone]
-7%	COc1ccccc1-c1ccc(C(=O)N2Cc3ccc(C(=O)n4ccnc4)n3Cc3ccccc32)cc1C [Example 292, 1H-Imidazol-1-yl-{10-[(2′-methoxy-2-methyl[1,1′-biphenyl]-4-yl)carbonyl]-10,11-dihydro-5H-pyrrolo[2,1-c][1,4]benzodiazepin-3-yl}methanone]
2%	COc1cc(C(=O)N2Cc3ccc(C(=O)N4CCC(N5CCCC5)CC4)n3Cc3ccccc32)ccc1-n1c(C)ccc1C [Example 313, {10-[4-(2,5-Dimethyl-1H-pyrrol-1-yl)-3-methoxybenzoyl]-10,11-dihydro-5H-pyrrolo[2,1-c][1,4]benzodiazepin-3-yl}[4-(1-pyrrolidinyl)-1-piperidinyl]methanone]
84%	COc1cc(C(=O)N2Cc3cccn3Cc3ccccc32)ccc1-c1ccccc1C(F)(F)F [Example 19D, (10,11-Dihydro-5H-pyrrolo[2,1-c][1,4]benzodiazepin-10-yl)-(2-methoxy-2′-trifluoromethyl-[1,1′-biphenyl]-4-yl)-methanone]
3%	COc1ccccc1-c1ccc(C(=O)N2Cc3ccc(C(=O)n4ccnc4)n3Cc3ccccc32)cc1OC [Example 293, {10-[(2,2′-Dimethoxy[1,1′-biphenyl]-4-yl)carbonyl]-10,11-dihydro-5H-pyrrolo[2,1-c][1,4]benzodiazepin-3-yl}(1H-imidazol-1-yl)methanone]
7%	COc1cccc(-c2ccc(C(=O)N3Cc4ccc(C(=O)N5CCN(CCCN(C)C)CC5)n4Cc4ccccc43)cc2C)c1 [Example 248, {4-[3-(Dimethylamino)propyl]-1-piperazinyl}{10-[(3′-methoxy-2-methyl[1,1′-biphenyl]-4-yl)carbonyl]-10,11-dihydro-5H-pyrrolo[2,1-c][1,4]benzodiazepin-3-yl}methanone]
26%	COc1ccccc1-c1ccc(C(=O)N2Cc3ccc(C(=O)NCCCN(C)C)n3Cc3ccccc32)cc1C [Example 72, N-[3-(Dimethylamino)propyl]-10-[(2′-methoxy-2-methyl[1,1′-biphenyl]-4-yl)carbonyl]-10,11-dihydro-5H-pyrrolo[2,1-c][1,4]benzodiazepine-3-carboxamide]
29%	COc1cc(C(=O)N2Cc3ccc(C(=O)N4CCCN(C)CC4)n3Cc3ccccc32)ccc1-c1cccc2ccccc12 [Example 68, {10-[3-Methoxy-4-(1-naphthyl)benzoyl]-10,11-dihydro-5H-pyrrolo[2,1-c][1,4]benzodiazepin-3-yl}(4-methyl-1,4-diazepan-1-yl)methanone]
8%	COc1cc(C(=O)N2Cc3ccc(C(=O)N4CCCN(C)CC4)n3Cc3ccccc32)ccc1-n1c(C)ccc1C [Example 307, {10-[4-(2,5-Dimethyl-1H-pyrrol-1-yl)-3-methoxybenzoyl]-10,11-dihydro-5H-pyrrolo[2,1-c][1,4]benzodiazepin-3-yl}(4-methyl-1,4-diazepan-1-yl)methanone]
13%	CN1CCCN(C(=O)c2ccc3n2Cc2ccccc2N(C(=O)c2ccc(-c4cccc5ccccc45)cc2Cl)C3)CC1 [Example 71, {10-[2-Chloro-4-(1-naphthyl)benzoyl]-10,11-dihydro-5H-pyrrolo[2,1-c][1,4]benzodiazepin-3-yl}(4-methyl-1,4-diazepan-1-yl)methanone]
27%	COc1ccccc1-c1ccc(C(=O)N2Cc3ccc(C(=O)N4CCCN(C)CC4)n3Cc3ccccc32)cc1C [Example 62, {10-[(2′-Methoxy-2-methyl[1,1′-biphenyl]-4-yl)carbonyl]-10,11-dihydro-5H-pyrrolo[2,1-c][1,4]benzodiazepin-3-yl}(4-methyl-1,4-diazepan-1-yl)methanone]
40%	CN(C)CCCN1CCN(C(=O)c2ccc3n2Cc2ccccc2N(C(=O)c2ccc(-c4cccc5ccccc45)cc2Cl)C3)CC1 [Example 256, {10-[2-Chloro-4-(1-naphthyl)benzoyl]-10,11-dihydro-5H-pyrrolo[2,1-c][1,4]benzodiazepin-3-yl}{4-[3-(dimethylamino)propyl]-1-piperazinyl}methanone]
-4%	COc1ccccc1-c1ccc(C(=O)N2Cc3ccc(C(=O)N4CCN(CCCN(C)C)CC4)n3Cc3ccccc32)cc1OC [Example 254, {10-[(2,2′-Dimethoxy[1,1′-biphenyl]-4-yl)carbonyl]-10,11-dihydro-5H-pyrrolo[2,1-c][1,4]benzodiazepin-3-yl}{4-[3-(dimethylamino)propyl]-1-piperazinyl}methanone]
28%	COc1cc(C(=O)N2Cc3ccc(C(=O)NCCCN(C)C)n3Cc3ccccc32)ccc1-c1ccccc1C [Example 77, N-[3-(Dimethylamino)propyl]-10-[(2-methoxy-2′-methyl[1,1′-biphenyl]-4-yl)carbonyl]-10,11-dihydro-5H-pyrrolo[2,1-c][1,4]benzodiazepine-3-carboxamide]
14%	COc1ccccc1-c1ccc(C(=O)N2Cc3ccc(C(=O)NCCCN(C)C)n3Cc3ccccc32)cc1 [Example 75, N-[3-(Dimethylamino)propyl]-10-[(2′-methoxy[1,1′-biphenyl]-4-yl)carbonyl]-10,11-dihydro-5H-pyrrolo[2,1-c][1,4]benzodiazepine-3-carboxamide]
24%	COc1cc(-c2ccccc2C)c(Cl)cc1C(=O)N1Cc2ccc(C(=O)N3CCN(CCCN(C)C)CC3)n2Cc2ccccc21 [Example 251, {10-[(6-Chloro-3-methoxy-2′-methyl[1,1′-biphenyl]-4-yl)carbonyl]-10,11-dihydro-5H-pyrrolo[2,1-c][1,4]benzodiazepin-3-yl}{4-[3-(dimethylamino)propyl]-1-piperazinyl}methanone]
14%	COc1cccc(-c2ccc(C(=O)N3Cc4ccc(C(=O)NCCCN(C)C)n4Cc4ccccc43)cc2C)c1 [Example 74, N-[3-(Dimethylamino)propyl]-10-[(3′-methoxy-2-methyl[1,1′-biphenyl]-4-yl)carbonyl]-10,11-dihydro-5H-pyrrolo[2,1-c][1,4]benzodiazepine-3-carboxamide]

SMILES	inhibition at 0.1 µM
COc1ccccc1-c1ccc(C(=O)N2Cc3ccc(C(=O)N[C@H]4CN5CCC4CC5)n3Cc3ccccc32)cc1OC [Example 299, N-[(3R)-1-Azabicyclo[2.2.2]oct-3-yl]-10-[(2,2′-dimethoxy[1,1′-biphenyl]-4-yl)carbonyl]-10,11-dihydro-5H-pyrrolo[2,1-c][1,4]benzodiazepine-3-carboxamide]	22%
COc1ccccc1-c1ccc(C(=O)N2Cc3ccc(C(=O)N[C@H]4CN5CCC4CC5)n3Cc3ccccc32)cc1 [Example 296, N-[(3R)-1-Azabicyclo[2.2.2]oct-3-yl]-10-[(2′-methoxy[1,1′-biphenyl]-4-yl)carbonyl]-10,11-dihydro-5H-pyrrolo[2,1-c][1,4]benzodiazepine-3-carboxamide]	24%
COc1cc(-c2ccccc2C)c(Cl)cc1C(=O)N1Cc2ccc(C(=O)N[C@@H]3CN4CCC3CC4)n2Cc2ccccc21 [Example 297, N-[(3S)-1-Azabicyclo[2.2.2]oct-3-yl]-10-[(6-chloro-3-methoxy-2′-methyl-[1,1′-biphenyl]-4-yl)carbonyl]-10,11-dihydro-5H-pyrrolo[2,1-c][1,4]benzodiazepine-3-carboxamide]	13%

Source: patent publication US7109193B2, “Tricyclic diazepines tocolytic oxytocin receptor antagonists” (Wyeth, priority 2001, dated 2006)
